The source of these data is US12365687B2 (Hoffmann-La Roche Inc., priority 2021, dated 2025).

Assay [1] deals with human GABAA α5β2γ1 receptor (Homo sapiens (Human), UniProt P31644+Q8N1C3). As to the kind of experiment: Radioligand binding assay for γ1-containing GABAA subtypes, [3H]RO7239181 competition (α5β2γ1).
The target in assay [2] is α2β2γ1 GABAA receptor subtype (Homo sapiens (Human), UniProt P47869+Q8N1C3). As to the kind of experiment: Two-electrode voltage clamp electrophysiology in Xenopus oocytes expressing GABAA receptors (modulation of GABA EC20 current). The note with it: for Efficacy (GABA)%: % modulation of GABA EC20 = 100*(Fold increase-1), α2β2γ1 oocytes, compound at approx. 30-fold Ki; for Fold increase h-GABA-A α2β2γ1 oocyte @ 30-fold Ki: Xenopus oocytes expressing α2β2γ1, compound at approx. 30-fold its Ki α2β2γ1, GABA EC20 current. It counts as cell-based. The procedure, abridged:
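Two-electrode voltage clamp at −80 mV, room temperature, 3-5 days after mRNA injection into oocytes. GABA applied at EC20 for 1.5 min, twice, with compound during second application; at least 3 oocytes per concentration. Efficacy = extremum of point-by-point current ratio, expressed as 100×(fold increase−1).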
On the technique in general: In two-electrode clamp one electrode senses voltage and the other passes current.

The target of assay [3] is human GABAA α1β3γ2 receptor (Homo sapiens (Human), UniProt P14867+P18507). As to the kind of experiment: Radioligand binding assay for γ2-containing GABAA subtypes, [3H]Flumazenil competition (α1β3γ2). The note with it: for γ2/γ1 Selectivity Ratio: Ki α1β3γ2 (nM)/Ki α2β2γ1 (nM); for LogSel: Log[Ki α1β3γ2 (nM)/Ki α2β2γ1 (nM)].
The target in assay [4] is human GABAA α2β2γ1 receptor (Homo sapiens (Human), UniProt P47869+Q8N1C3). As to the kind of experiment: Radioligand binding assay for γ1-containing GABAA subtypes, [3H]RO7239181 competition (α2β2γ1).
Where [5] appears, read: Ki h-GABAA α2β2γ1, [3H]RO7239181 competition binding, human GABAA α2β2γ1.
[6] abbreviates: Ki h-GABAA α2β2γ1, displacement of [3H]RO7239181, membranes of HEK293F cells expressing human receptors, means of two determinations.

For `C[C@@H]1N=C(c2ncccc2F)c2c(ccc(C(F)(F)F)c2Cl)-n2c(CO)cnc21` [Example 151, [(4S)-7-chloro-6-(3-fluoro-2-pyridyl)-4-methyl-8-(trifluoromethyl)-4H-imidazo[1,2-a][1,4]benzodiazepin-1-yl]methanol], the Ki (commonly a dissociation constant, usually derived from enzyme kinetics or from competition with a known ligand) in assay [1] came to 24 nM. In assay [2], the “Efficacy (GABA)%” value is on record as 253% and the “Fold increase h-GABA-A α2β2γ1 oocyte @ 30-fold Ki” value turned out to be 3.53. Also, in assay [3], the inhibition constant (Ki) came out at 13200 nM, the “γ2/γ1 Selectivity Ratio” value came to 142.0 and the LogSel stood at 2.15. The molecule further had a Ki in assay [4] (setting [5]) of 92.8 nM. This molecule registered a Ki in assay [4] (setting [6]) of 92.8 nM.

In assay [1], `C[C@@H]1N=C(c2ncccc2F)c2c(ccc(C(F)(F)F)c2Cl)-n2cc(CO)nc21` [Example 153, [(4S)-7-chloro-6-(3-fluoro-2-pyridyl)-4-methyl-8-(trifluoromethyl)-4H-imidazo[1,2-a][1,4]benzodiazepin-2-yl]methanol] gave a Ki of 6.76 nM. For the same molecule, in assay [2], the “Efficacy (GABA)%” value was determined as 247% and the “Fold increase h-GABA-A α2β2γ1 oocyte @ 30-fold Ki” value amounted to 3.47. Also, in assay [3], affinity was put at a Ki of 6020 nM, the “γ2/γ1 Selectivity Ratio” value was 97.7 and the LogSel is reported as 1.99. For the same molecule, in assay [4] (setting [5]), the affinity, expressed as Ki, was 62.4 nM. Further, in assay [4] (setting [6]), the inhibition constant Ki stood at 61.7 nM.

For `Cc1c(C(=O)NCCO)nc2n1-c1ccc(C(F)(F)F)c(Cl)c1C(c1ncccc1F)=N[C@H]2C` [Example 154, (4S)-7-chloro-6-(3-fluoro-2-pyridyl)-N-(2-hydroxyethyl)-1,4-dimethyl-8-(trifluoromethyl)-4H-imidazo[1,2-a][1,4]benzodiazepine-2-carboxamide], the Ki in assay [1] was found to be 23 nM; in assay [3], 11400 nM; in assay [4] (setting [5]), 68.7 nM; in assay [4] (setting [6]), 68.7 nM. Moreover, the “Efficacy (GABA)%” value in assay [2] is 191%. Also, the “Fold increase h-GABA-A α2β2γ1 oocyte @ 30-fold Ki” value in assay [2] amounted to 2.91. In assay [3], the “γ2/γ1 Selectivity Ratio” value is on record as 166.6. Also, the LogSel in assay [3] turned out to be 2.22.

Molecule `C[C@H](O)CNC(=O)c1cn2c(n1)[C@H](C)N=C(c1ncccc1F)c1c-2ccc(C(F)(F)F)c1Cl` [Example 155, (4S)-7-chloro-6-(3-fluoro-2-pyridyl)-4-methyl-N-[(2S)-2-hydroxypropyl]-8-(trifluoromethyl)-4H-imidazo[1,2-a][1,4]benzodiazepine-2-carboxamide] returned a Ki in assay [1] of 10.8 nM. In assay [2], the “Efficacy (GABA)%” value worked out at 193% and the “Fold increase h-GABA-A α2β2γ1 oocyte @ 30-fold Ki” value stood at 2.93. In assay [3], the affinity, expressed as Ki, was 8990 nM; the “γ2/γ1 Selectivity Ratio” value worked out at 182.4; the LogSel was 2.26. The molecule also had a Ki in assay [4] (setting [5]) of 49.7 nM. For the same molecule, in assay [4] (setting [6]), the Ki is 49.3 nM.

As to `C[C@@H]1N=C(c2ncccc2F)c2c(ccc(C(F)(F)F)c2Cl)-n2cc(C(=O)N3CC(C(F)F)C3)nc21` [Example 156, [3-(difluoromethyl)azetidin-1-yl]-[(4S)-7-chloro-6-(3-fluoro-2-pyridyl)-4-methyl-8-(trifluoromethyl)-4H-imidazo[1,2-a][1,4]benzodiazepin-2-yl]methanone], the Ki in assay [1] amounted to 15.5 nM. In addition, in assay [2], the “Efficacy (GABA)%” value is given as 168% and the “Fold increase h-GABA-A α2β2γ1 oocyte @ 30-fold Ki” value is 2.68. Besides, in assay [3], the Ki was 10800 nM, the “γ2/γ1 Selectivity Ratio” value came out at 116.1 and the LogSel was 2.06. Further, the Ki in assay [4] (setting [5]) came out at 95.1 nM. Further, affinity in assay [4] (setting [6]) was put at a Ki of 93.1 nM.

On to `C[C@@H]1N=C(c2ncccc2F)c2c(ccc(C(F)(F)F)c2Cl)-n2cc(C(=O)NC[C@@H](C)O)nc21` [Example 157, (4S)-7-chloro-6-(3-fluoro-2-pyridyl)-4-methyl-N-[(2R)-2-hydroxypropyl]-8-(trifluoromethyl)-4H-imidazo[1,2-a][1,4]benzodiazepine-2-carboxamide], for which the Ki in assay [1] was determined as 13.4 nM; in assay [3], 11100 nM; in assay [4] (setting [5]) it was 60.1 nM; in assay [4] (setting [6]), 60 nM. The “Efficacy (GABA)%” value in assay [2] is reported as 191%. In assay [2], the “Fold increase h-GABA-A α2β2γ1 oocyte @ 30-fold Ki” value was 2.91. Also, the “γ2/γ1 Selectivity Ratio” value in assay [3] came out at 185.8. In assay [3], this molecule had a LogSel of 2.27.

For the molecule `CCOC1CN(C(=O)c2cn3c(n2)[C@H](C)N=C(c2ncccc2F)c2c-3ccc(C(F)(F)F)c2Cl)C1` [Example 158, (3-ethoxyazetidin-1-yl)-[(4S)-7-chloro-6-(3-fluoro-2-pyridyl)-4-methyl-8-(trifluoromethyl)-4H-imidazo[1,2-a][1,4]benzodiazepin-2-yl]methanone], the Ki in assay [1] turned out to be 21.7 nM. In assay [2], the “Efficacy (GABA)%” value is 144% and the “Fold increase h-GABA-A α2β2γ1 oocyte @ 30-fold Ki” value turned out to be 2.44. In assay [3], the inhibition constant (Ki) is over 30000 nM, the “γ2/γ1 Selectivity Ratio” value came to 318.9 and the LogSel worked out at 2.50. In assay [4] (setting [5]), this molecule registered a Ki of 94.6 nM. The molecule further had a Ki in assay [4] (setting [6]) of 94.1 nM.

In assay [1], `C[C@@H]1N=C(c2ncccc2F)c2c(ccc(C(F)(F)F)c2Cl)-n2cc(C(=O)N3CC(C)(O)C3)nc21` [Example 160, (3-hydroxy-3-methyl-azetidin-1-yl)-[(4S)-7-chloro-6-(3-fluoro-2-pyridyl)-4-methyl-8-(trifluoromethyl)-4H-imidazo[1,2-a][1,4]benzodiazepin-2-yl]methanone] yielded a Ki of 19.2 nM. Further, in assay [2], the “Efficacy (GABA)%” value is recorded as 177% and the “Fold increase h-GABA-A α2β2γ1 oocyte @ 30-fold Ki” value was 2.77. Also, in assay [3], the affinity, expressed as Ki, was 13300 nM; the “γ2/γ1 Selectivity Ratio” value was found to be 201.1; the LogSel amounted to 2.30. The affinity in assay [4] (setting [5]) corresponds to a Ki of 66.4 nM. In assay [4] (setting [6]), this molecule gave a Ki of 66.3 nM.

In assay [1], `C[C@@H]1N=C(c2ncccc2F)c2c(ccc(C(F)(F)F)c2Cl)-n2cc(C(=O)N3CC(F)C3)nc21` [Example 161, (3-fluoroazetidin-1-yl)-[(4S)-7-chloro-6-(3-fluoro-2-pyridyl)-4-methyl-8-(trifluoromethyl)-4H-imidazo[1,2-a][1,4]benzodiazepin-2-yl]methanone] showed a Ki of 21.3 nM. In addition, in assay [2], the “Efficacy (GABA)%” value worked out at 165% and the “Fold increase h-GABA-A α2β2γ1 oocyte @ 30-fold Ki” value turned out to be 2.65. Moreover, in assay [3], the Ki was over 30000 nM, the “γ2/γ1 Selectivity Ratio” value is on record as 412.4 and the LogSel worked out at 2.62. Further, in assay [4] (setting [5]), the Ki came to 72.8 nM. In addition, the inhibitory constant (Ki) in assay [4] (setting [6]) turned out to be 72.7 nM.

On to `Cc1c(C(=O)NC[C@@H](C)O)nc2n1-c1ccc(C(F)(F)F)c(Cl)c1C(c1ncccc1F)=N[C@H]2C` [Example 162, (4S)-7-chloro-6-(3-fluoro-2-pyridyl)-1,4-dimethyl-N-[(2R)-2-hydroxypropyl]-8-(trifluoromethyl)-4H-imidazo[1,2-a][1,4]benzodiazepine-2-carboxamide], for which the Ki in assay [1] is 13.6 nM. Besides, in assay [2], the “Efficacy (GABA)%” value is 148% and the “Fold increase h-GABA-A α2β2γ1 oocyte @ 30-fold Ki” value was 2.48. In assay [3], affinity was put at a Ki of 11700 nM, the “γ2/γ1 Selectivity Ratio” value is 210.1 and the LogSel is reported as 2.32. The same molecule came in with an inhibition constant Ki in assay [4] (setting [5]) of 54.4 nM. Affinity in assay [4] (setting [6]) was put at a Ki of 55.7 nM.

On to `CC1CN(C(=O)c2cn3c(n2)[C@H](C)N=C(c2ncccc2F)c2c-3ccc(C(F)(F)F)c2Cl)C1` [Example 163, (3-methylazetidin-1-yl)-[(4S)-7-chloro-6-(3-fluoro-2-pyridyl)-4-methyl-8-(trifluoromethyl)-4H-imidazo[1,2-a][1,4]benzodiazepin-2-yl]methanone], for which the Ki in assay [1] is 20.6 nM. Moreover, in assay [2], the “Efficacy (GABA)%” value is 136% and the “Fold increase h-GABA-A α2β2γ1 oocyte @ 30-fold Ki” value was 2.36. Moreover, in assay [3], the affinity corresponds to a Ki of 13500 nM, the “γ2/γ1 Selectivity Ratio” value came out at 134.0 and the LogSel is 2.13. The same molecule had a Ki in assay [4] (setting [5]) of 87.1 nM. Besides, the Ki in assay [4] (setting [6]) was 101 nM.

In assay [1], `C[C@@H]1N=C(c2ncccc2F)c2c(ccc(C(F)(F)F)c2Cl)-n2cc(C(=O)NCC3(O)CC3)nc21` [Example 164, (4S)-7-chloro-6-(3-fluoro-2-pyridyl)-N-[(1-hydroxycyclopropyl)methyl]-4-methy-8-(trifluoromethyl)-4H-imidazo[1,2-a][1,4]benzodiazepine-2-carboxamide] had a Ki of 10.6 nM. In assay [2], the “Efficacy (GABA)%” value was found to be 177% and the “Fold increase h-GABA-A α2β2γ1 oocyte @ 30-fold Ki” value is on record as 2.77. Also, in assay [3], the Ki was 8520 nM, the “γ2/γ1 Selectivity Ratio” value came out at 253.2 and the LogSel came to 2.40. Also, the Ki in assay [4] (setting [5]) amounted to 35.2 nM. For the same molecule, the Ki in assay [4] (setting [6]) came out at 33.7 nM.

In assay [1], `C[C@@H]1N=C(c2ncccc2F)c2c(ccc(C(F)(F)F)c2Cl)-n2cc(C(=O)N[C@H]3C[C@H](O)C3)nc21` [Example 165, (4S)-7-chloro-6-(3-fluoro-2-pyridyl)-N-(trans-3-hydroxycyclobutyl)-4-methyl-8-(trifluoromethyl)-4H-imidazo[1,2-a][1,4]benzodiazepine-2-carboxamide] displayed an inhibition constant Ki of 9.55 nM. In addition, in assay [2], the “Efficacy (GABA)%” value came out at 183% and the “Fold increase h-GABA-A α2β2γ1 oocyte @ 30-fold Ki” value is 2.83. Also, in assay [3], the Ki is 7770 nM, the “γ2/γ1 Selectivity Ratio” value is listed as 179.6 and the LogSel is given as 2.25. In assay [4] (setting [5]), the Ki was 36.2 nM. The Ki in assay [4] (setting [6]) came to 43.3 nM.
